In ChEMBL document CHEMBL5465560, “Selectivity Literature for EUbOPEN Chemogenomic Library” (2024):
Numbering of substitutions follows the chain as printed.

Columns and labels:
Settings in all cases: at 1 µM
[1] = molecular target: Receptor-type tyrosine-protein kinase FLT3 (Homo sapiens) (UniProt P36888); assay: (§1) Selectivity interaction (KinomeScan (DiscoverX)) EUB0001049a FLT3
[2] = tested on: T1, Receptor-type tyrosine-protein kinase FLT3 (Homo sapiens), P36888 [D835H]; assay: as §1
T1 sequence (whole entry): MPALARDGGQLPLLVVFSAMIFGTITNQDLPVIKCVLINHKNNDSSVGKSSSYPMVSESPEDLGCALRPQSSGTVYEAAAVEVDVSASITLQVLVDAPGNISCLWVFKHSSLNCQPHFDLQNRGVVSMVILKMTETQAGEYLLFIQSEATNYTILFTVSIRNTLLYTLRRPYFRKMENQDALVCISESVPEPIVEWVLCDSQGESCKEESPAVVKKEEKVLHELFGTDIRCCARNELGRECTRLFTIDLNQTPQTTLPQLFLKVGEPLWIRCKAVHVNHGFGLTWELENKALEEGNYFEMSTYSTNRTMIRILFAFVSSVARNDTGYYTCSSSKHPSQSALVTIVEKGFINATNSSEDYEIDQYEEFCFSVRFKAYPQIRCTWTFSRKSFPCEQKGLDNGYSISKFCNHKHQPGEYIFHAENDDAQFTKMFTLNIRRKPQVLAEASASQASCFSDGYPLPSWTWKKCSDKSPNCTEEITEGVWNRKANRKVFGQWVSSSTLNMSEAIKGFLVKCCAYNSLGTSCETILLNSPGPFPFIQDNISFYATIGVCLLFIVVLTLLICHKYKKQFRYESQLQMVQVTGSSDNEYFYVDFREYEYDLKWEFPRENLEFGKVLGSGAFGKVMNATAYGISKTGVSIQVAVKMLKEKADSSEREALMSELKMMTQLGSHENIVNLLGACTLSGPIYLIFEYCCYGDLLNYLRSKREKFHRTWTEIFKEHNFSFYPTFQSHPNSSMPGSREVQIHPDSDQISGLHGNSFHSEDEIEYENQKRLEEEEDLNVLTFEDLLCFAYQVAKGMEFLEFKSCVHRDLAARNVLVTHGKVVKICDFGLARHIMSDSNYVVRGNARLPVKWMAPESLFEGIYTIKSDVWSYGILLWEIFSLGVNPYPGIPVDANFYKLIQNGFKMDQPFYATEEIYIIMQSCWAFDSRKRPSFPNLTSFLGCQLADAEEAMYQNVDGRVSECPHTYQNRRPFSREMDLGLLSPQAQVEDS

[3] = tested on: T2, Receptor-type tyrosine-protein kinase FLT3 (Homo sapiens), P36888 [D835Y]; assay: as §1
T2 sequence (whole entry): T1 sequence (whole entry) with H835Y

[4] = tested on: T3, Receptor-type tyrosine-protein kinase FLT3 (Homo sapiens), P36888 [R834Q]; assay: as §1
T3 sequence (whole entry): T1 sequence (whole entry) with R834Q, H835D

COc1cc(Nc2nc(C)cc(-c3cnn4nc(OC)ccc34)n2)cc(C(F)(F)F)c1
% of control [1]: 100% | % of control [2]: 93% | % of control [3]: 79% | % of control [4]: 100%
